In ChEMBL document CHEMBL1143768, “Microwave prompted multigram synthesis, structural determination, and photo-antiproliferative activity of fluorinated 4-hydroxyquinolinones” (Bioorg Med Chem Lett, 2007):
Converted amounts (≈) assume the structure as drawn.

Tests used:
[1] = tested on: Mycobacterium tuberculosis; experiment: Growth inhibition of Mycobacterium tuberculosis at 6.25 ug/ml; assay type: functional
HL-60 [2] = experiment: Cell cycle arrest in HL60 cell line irradiated with 2.5 J cm^-2 assessed as accumulation at G2 phase at 2.5 […] after 24 hrs; assay type: functional, Homo sapiens
LoVo = experiment: Photocytotoxicity against human LoVo cell line irradiated with 2.5 J cm^-2 after 72 hrs by MTT assay; assay type: functional; conditions: light or radiation study
HL-60 [3] = experiment: Apoptotic activity in HL60 cells irradiated with 2.5 J cm^-2 at 5.0 […] after 24 hrs; assay type: functional, Homo sapiens
HL-60 [4] = experiment: Cell cycle arrest in HL60 cell line irradiated with 2.5 J cm^-2 assessed as accumulation at G1 phase at 5.0 […] after 24hrs; assay type: functional, Homo sapiens
HL-60 [5] = experiment: Cell cycle arrest in HL60 cell line irradiated with 2.5 J cm^-2 assessed as accumulation at S phase at 5.0 […] after 72 hrs; assay type: functional, Homo sapiens
HL-60 [6] = experiment: Photocytotoxicity against human HL60 cell line irradiated with 2.5 J cm^-2 after 72 hrs by MTT assay; assay type: functional; conditions: HL-60, light or radiation study
HL-60 [7] = experiment: Cell cycle arrest in HL60 cell line irradiated with 2.5 J cm^-2 assessed as accumulation at S phase at 2.5 […] after 48 hrs; assay type: functional, Homo sapiens
HL-60 [8] = experiment: Cell cycle arrest in HL60 cell line irradiated with 2.5 J cm^-2 assessed as accumulation at G2 phase at 5.0 […] after 48 hrs; assay type: functional, Homo sapiens
HL-60 [9] = experiment: Cell cycle arrest in HL60 cell line irradiated with 2.5 J cm^-2 assessed as accumulation at G1 phase at 2.5 […] after 72 hrs; assay type: functional, Homo sapiens
HL-60 [10] = experiment: Cell cycle arrest in HL60 cell line irradiated with 2.5 J cm^-2 assessed as accumulation at G1 phase at 2.5 […] after 24 hrs; assay type: functional, Homo sapiens
HL-60 [11] = experiment: Apoptotic activity in HL60 cells irradiated with 2.5 J cm^-2 at 2.5 […] after 48 hrs; assay type: functional, Homo sapiens
HL-60 [12] = experiment: Cell cycle arrest in HL60 cell line irradiated with 2.5 J cm^-2 assessed as accumulation at G2 phase at 5.0 […] after 72 hrs; assay type: functional, Homo sapiens
HL-60 [13] = experiment: Cell cycle arrest in HL60 cell line irradiated with 2.5 J cm^-2 assessed as accumulation at G1 phase at 2.5 […] after 48 hrs; assay type: functional, Homo sapiens
HL-60 [14] = experiment: Apoptotic activity in HL60 cells irradiated with 2.5 J cm^-2 at 2.5 […] after 24 hrs; assay type: functional, Homo sapiens
HL-60 [15] = experiment: Cell cycle arrest in HL60 cell line irradiated with 2.5 J cm^-2 assessed as accumulation at G1 phase at 5.0 […] after 72 hrs; assay type: functional, Homo sapiens
HL-60 [16] = experiment: Cell cycle arrest in HL60 cell line irradiated with 2.5 J cm^-2 assessed as accumulation at G2 phase at 5.0 […] after 24hrs; assay type: functional, Homo sapiens
[17] = Photocytotoxicity against human NTCC 2544 cell line irradiated with 2.5 J cm^-2 after 72 hrs by MTT assay; assay type: cell-based; conditions: NTCC 2544 cells
HL-60 [18] = experiment: Apoptotic activity in HL60 cells irradiated with 2.5 J cm^-2 at 5.0 […] after 72 hrs; assay type: functional, Homo sapiens
[19] = Photocytotoxicity against human NTCC 2544 cell line irradiated with 1.25 J cm^-2 after 72 hrs by MTT assay; assay type: cell-based; conditions: NTCC 2544 cells
HL-60 [20] = experiment: Apoptotic activity in HL60 cells irradiated with 2.5 J cm^-2 at 2.5 […] after 72 hrs; assay type: functional, Homo sapiens
HL-60 [21] = experiment: Apoptotic activity in HL60 cells irradiated with 2.5 J cm^-2 at 5.0 […] after 48 hrs; assay type: functional, Homo sapiens
HL-60 [22] = experiment: Cell cycle arrest in HL60 cell line irradiated with 2.5 J cm^-2 assessed as accumulation at G2 phase at 2.5 […] after 48 hrs; assay type: functional, Homo sapiens
HL-60 [23] = experiment: Cell cycle arrest in HL60 cell line irradiated with 2.5 J cm^-2 assessed as accumulation at S phase at 5.0 […] after 48 hrs; assay type: functional, Homo sapiens
HL-60 [24] = experiment: Photocytotoxicity against human HL60 cell line irradiated with 1.25 J cm^-2 after 72 hrs by MTT assay; assay type: functional; conditions: HL-60, light or radiation study
HL-60 [25] = experiment: Cell cycle arrest in HL60 cell line […] cm^-2 assessed as accumulation at G2 phase at 2.5 […] after 72 hrs; assay type: functional, Homo sapiens
HL-60 [26] = experiment: Cell cycle arrest in HL60 cell line irradiated with 2.5 J cm^-2 assessed as accumulation at S phase at 5.0 […] after 24hrs; assay type: functional, Homo sapiens
HL-60 [27] = experiment: Cell cycle arrest in HL60 cell line irradiated with 2.5 J cm^-2 assessed as accumulation at S phase at 2.5 […] after 72 hrs; assay type: functional, Homo sapiens
HL-60 [28] = experiment: Cell cycle arrest in HL60 cell line irradiated with 2.5 J cm^-2 assessed as accumulation at S phase at 2.5 […] after 24 hrs; assay type: functional, Homo sapiens
HL-60 [29] = experiment: Cell cycle arrest in HL60 cell line irradiated with 2.5 J cm^-2 assessed as accumulation at G1 phase at 5.0 […] after 48 hrs; assay type: functional, Homo sapiens
[30] = tested on: Mycobacterium tuberculosis; experiment: Antimicrobial activity against Mycobacterium tuberculosis; assay type: functional
Trichophyton benhamiae = experiment: Antifungal activity against Trichophyton mentagrophytes 445(TM) by broth microdilution test; assay type: functional, Arthroderma benhamiae

Work on `O=c1cc(O)c2ccccc2[nH]1` yielded an inhibition at 6.25 µg/mL [1] of 0%.

Molecule `O=c1cc(O)c2cc(F)ccc2[nH]1` has an Activity (HL-60 [2]) of 10.8%, a GI50 (LoVo) of 12.1 µM and an Activity (HL-60 [3]) of 21%. For the same molecule, the Activity (HL-60 [4]) was 34.6%, the Activity (HL-60 [5]) was 37.1% and the GI50 (HL-60 [6]) was 7.8 µM. For the same molecule, the Activity (HL-60 [7]) was 45%, the Activity (HL-60 [8]) was 11.7% and the Activity (HL-60 [9]) was 44.2%. It also gave an Activity (HL-60 [10]) of 30.8%, an Activity (HL-60 [11]) of 27% and an Activity (HL-60 [12]) of 6.9%. For the same molecule, the Activity (HL-60 [13]) was 44.7%, the Activity (HL-60 [14]) was 13.2% and the Activity (HL-60 [15]) was 56%. The Activity (HL-60 [16]) was 11.1%, the GI50 at 72 h [17] was greater than 20 µM and the Activity (HL-60 [18]) was 46%. It also gave a GI50 at 72 h [19] greater than 20 µM, an Activity (HL-60 [20]) of 40.5% and an Activity (HL-60 [21]) of 26%. The Activity (HL-60 [22]) was 10.3%, the Activity (HL-60 [23]) was 38.6% and the GI50 (HL-60 [24]) was greater than 10 µM. It also gave an inhibition at 6.25 µg/mL [1] of 35%, an Activity (HL-60 [25]) of 12% and an Activity (HL-60 [26]) of 54.3%. It also gave an Activity (HL-60 [27]) of 43.8%, an Activity (HL-60 [28]) of 58.4% and an Activity (HL-60 [29]) of 49.6%.

For `O=c1cc(O)c2cccc(C(F)(F)F)c2[nH]1`, the GI50 (LoVo) was 10.1 µM, the GI50 (HL-60 [6]) was 7.3 µM and the GI50 at 72 h [17] was 7.8 µM. It also gave a GI50 at 72 h [19] greater than 20 µM, a GI50 (HL-60 [24]) greater than 10 µM and an inhibition at 6.25 µg/mL [1] of 69%.

`O=c1cc(O)c2ccc(C(F)(F)F)cc2[nH]1` showed a GI50 (LoVo) of 1.8 µM, a GI50 at 72 h [17] of 2.5 µM and a GI50 at 72 h [19] of 7 µM. It also gave a GI50 (HL-60 [24]) of 6.2 µM, an Inhibition [30] of 72% and an inhibition at 6.25 µg/mL [1] of 72%.

Work on `Cc1ccc2c(O)cc(=O)[nH]c2c1` yielded a GI50 (HL-60 [6]) of 10 µM, a GI50 (HL-60 [24]) greater than 10 µM and an inhibition at 6.25 µg/mL [1] of 54%.

With `O=c1cc(O)c2cccc(F)c2[nH]1` the GI50 (HL-60 [6]) was 10 µM, the GI50 (HL-60 [24]) was greater than 10 µM and the inhibition at 6.25 µg/mL [1] was 50%.

Molecule `O=c1cc(O)c2ccc(F)cc2[nH]1` has a GI50 (HL-60 [6]) of 10 µM, a GI50 (HL-60 [24]) greater than 10 µM and an inhibition at 6.25 µg/mL [1] of 52%.

Molecule `O=c1cc(O)c2ccc(Cl)cc2[nH]1` has an inhibition at 6.25 µg/mL [1] of 2%.

In the case of `OC(Cn1cncn1)(Cn1cncn1)c1ccc(F)cc1F` [FLUCONAZOLE], the MIC (Trichophyton benhamiae) is reported as 1950 µM (≈ 597 µg/mL).

`NC(=O)c1cnccn1` [PYRAZINAMIDE] showed an inhibition at 6.25 µg/mL [1] of 100%.
